# Experimental data: patent US8604053B2, “TRPV1 antagonists” (AbbVie Inc., priority 2008, dated 2013)
# Columns and labels:
# [1] = biological target: T1, CYP2C9 (Homo sapiens, UniProt P11712); experiment: CYP2C9 inhibition assay; format: in vitro ADME; conditions: human liver microsomes, substrate Luciferin-H; for inhibition at 25 min, 2.2 µM: pH 7.4, probe Luciferin-H (100 μM final), read-out: CYP2C9 % inh @ 2.2 μM
# T1 construct: human liver microsomes (BD Gentest); tissue BD Gentest; host or cells: human liver microsomes
# T1 sequence (P11712 whole entry): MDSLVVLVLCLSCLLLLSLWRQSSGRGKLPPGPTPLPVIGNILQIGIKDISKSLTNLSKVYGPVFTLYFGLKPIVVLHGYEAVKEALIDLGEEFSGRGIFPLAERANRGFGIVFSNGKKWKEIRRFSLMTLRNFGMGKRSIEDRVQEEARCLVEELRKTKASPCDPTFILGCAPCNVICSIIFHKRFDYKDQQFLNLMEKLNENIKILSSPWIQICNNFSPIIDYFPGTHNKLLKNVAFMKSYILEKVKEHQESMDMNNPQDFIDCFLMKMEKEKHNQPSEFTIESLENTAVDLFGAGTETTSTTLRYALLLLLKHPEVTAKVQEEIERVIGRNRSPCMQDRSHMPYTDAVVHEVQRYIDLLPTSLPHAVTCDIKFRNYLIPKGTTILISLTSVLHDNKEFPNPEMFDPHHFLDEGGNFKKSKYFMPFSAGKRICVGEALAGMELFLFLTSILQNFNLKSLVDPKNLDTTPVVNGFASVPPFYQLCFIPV
# Protocol: (§1) Stock solutions of test compounds were assayed in 96-well format for their ability to inhibit CYP2C9, CYP2D6, or CYP3A4 mediated metabolism of test substrates. Luciferin-H was used as the substrate for CYP2C9; 3-[2-(N,N-diethyl-N-methylammonium)ethyl]-7-methoxy-4-methylcoumarin (AMMC) was used as the substrate for CYP2D6; 7-benzyloxyquiniline (BZQ) was used as the substrate for CYP3A4. For each subtype, positive controls (sulphaphenazole in the case of CYP2C9; quinidine in the case of CYP2D6, ketoconazole in the case of CYP3A4) were used to validate assay results run in duplicate.
# (§2) Pre-Incubation Mixture Preparation for CYP2C9 and CYP2D6: A pre-incubation mixture was prepared by combining 100 mM phosphate buffer (9.12 mL; pH 7.4), human liver microsomes (BD Gentest, 240 itt; final concentration: 0.4 mg/mL), and 10 mM nicotinamide adenine dinucleotide phosphate in 65.4 mM MgCl2 hexahydrate (120 μL; final concentration: 125 μM and 818 μM, respectively). To this was mixture is added a ‘regeneration’ mixture (120 μL) of 333 mM glucose-6-phosphate and 40 U/mL glucose-6-phosphate dehydrogenase in 5 mM sodium citrate (final concentration: 4 mM, 0.5 U/mL, and 0.06 mM, respectively).
# Substrate Mixture Preparation for CYP2C9: To a solution of 25 mM phosphate buffer, (2.16 mL, pH 7.4) was added 5 mM Luciferin-H (Promega P450 Glo Assay V8792, 240 μL; final solution concentration 0.5 mM, final assay concentration 100 μM).
# CYP2C9 Inhibiton Assay: To each well in the assay plate containing varying concentrations of test compound or control compound in DMSO (10 μL) Pre-Incubation Mixture (40 itt) was added to the wells and the assay plate was pre-incubated for 10 minutes at 37° C., with shaking or rocking. CYP2C9 Substrate Mixture (10 μL) was added to all wells and the assay plate was incubated for an additional 25 minutes at 37° C., with shaking or rocking. Final DMSO concentration was 1%. Luciferin-H detection reagent (Promega kit V8792, 50 μL) was added to all wells. The plate was then vortexed at ambient temperature for between 20 minutes and 2 hours, and the luminescence of each well was then read and recorded.
# [2] = Assessment of hemodynamic profile in anesthetized rat; format: in vivo; conditions: i.v. infusion 3, 10 and 30 mg/kg/30 minutes/dose, relative to vehicle control group
# Protocol: Male Sprague-Dawley rats were anesthetized with Inactin, instrumented, and allowed to stabilize. Following a 30 minute baseline period, test compound was infused via intravenous administration at 3, 10, and 30 mg/kg/30 minutes/dose in a low volume PEG-400 vehicle (1 mL/kg) or 20:40:40 dimethylacetamide:propylene glycol:PEG-400 vehicle (1 mL/kg). A separate group of animals received infusion of vehicle alone. Mean arterial pressure (MAP) and heart rate (HR) were observed and recorded.
# [3] = Rat telemetry protocol, core body temperature; format: in vivo; conditions: core body temperature of rats one hour post dosing, 100 μmol/kg p.o., relative to vehicle
# Protocol: Male, Sprague Dawley rats, 225-250 grams were anesthetized with Sevoflurane (Abbott Laboratories). Rats were placed on a heating pad and covered with a sterile surgical drape. A ventral midline abdominal incision was made and sterile cotton tip applicators were used to gently move internal tissue and expose the abdominal aorta for implantation of the telemetry catheter (Data Sciences International; TL11M2-050-PXT). Blood flow was temporarily stopped to the lower extremities (5-7 min) with Diffenbach clamps to allow the insertion of the telemetry catheter into the abdominal aorta. Once inserted, a sterile cellulose patch was placed over the catheter/aorta and secured using a small amount of tissue adhesive (Vetbond, 3M). Once catheter placement was complete, the clamps were removed and blood flow was restored to the lower extremities. Thetransmitter was placed in the intraperitoneal cavity. The transmitter suture rib was sewn into the abdominal sutures to secure it in place. The skin was closed using sterile wound clips and the animal removed from Sevoflurane. Buprenex ([…] s.c.; Phoenix) was administered for post-operative analgesia. Animals were maintained on a heating pad until ambulatory, and then individually housed with food and water ad lib. Surgical staples were removed after 7-10 days post-implantation. Rats were allowed a 2-week post-surgical recovery period before treatment with test compound. Oral dosing (p.o.) was at time zero, with rats receiving a single dose of vehicle (10% EtOH, 20% Tween-80, 70% PEG-400) or a 100 μmol/kg dose of compound dissolved in vehicle. Temperature measurements were recorded every 15 minutes for the duration of the study (24 hours).
# Representative compounds described herein have the novel property of having limited transient temperature effect on core body temperature of a mammal (e.g. rats). For example, compounds tested alter core body temperature of rats by less than about +0.5° C. at about 1 hour after administration of a single dose (100 μmol/kg) of the test compounds orally, for example, in the range from about −2.5° C. to less than about +0.5° C., from about −0.5° C. to less than about +0.5° C.; or from about −0.3° C. to about +0.3° C.
# The term “core body temperature” as used herein, means the temperature measured in the intraperitoneal cavity.
# [4] = biological target: T2, CYP2D6 (Homo sapiens, UniProt P10635); experiment: in vitro; format: in vitro ADME; conditions: microsomes; for inhibition at 25 min, 2.2 µM: human, pH 7.4
# T2 construct: human liver microsomes (BD Gentest); tissue BD Gentest; host or cells: human liver microsomes
# T2 sequence (P10635 whole entry): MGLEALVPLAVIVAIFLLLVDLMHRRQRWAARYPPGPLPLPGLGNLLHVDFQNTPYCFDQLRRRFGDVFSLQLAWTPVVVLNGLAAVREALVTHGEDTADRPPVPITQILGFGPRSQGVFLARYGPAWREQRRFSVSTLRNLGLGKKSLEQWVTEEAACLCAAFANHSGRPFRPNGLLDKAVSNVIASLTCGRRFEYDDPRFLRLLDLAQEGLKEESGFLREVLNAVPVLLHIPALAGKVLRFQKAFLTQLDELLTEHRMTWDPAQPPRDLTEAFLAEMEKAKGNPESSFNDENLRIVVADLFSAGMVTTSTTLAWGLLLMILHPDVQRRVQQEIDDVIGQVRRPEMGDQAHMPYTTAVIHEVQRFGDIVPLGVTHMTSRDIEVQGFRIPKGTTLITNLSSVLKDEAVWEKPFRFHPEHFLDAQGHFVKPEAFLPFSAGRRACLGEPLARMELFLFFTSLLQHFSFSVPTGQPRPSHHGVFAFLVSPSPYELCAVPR
# Protocol: as §1, §2
# Substrate Mixture Preparation for CYP2D6: To a solution of 100 mM phosphate buffer, (2.80 mL, pH 7.4) was added 10 mM AMMC in acetonitrile (14 itt; final solution concentration 0.05 mM, final assay concentration 10 μM).
# CYP2D6 Inhibiton Assay: To each well in the assay plate containing varying concentrations of test compound or control compound in DMSO (10 μL), Pre-Incubation Mixture (40 μL) was added to the wells and the assay plate was pre-incubated for 10 minutes at 37° C., with shaking or rocking. A pre-read of each well was performed at 390 nm and 460 nm extinction/emission. CYP2D6 Substrate Mixture (10 μL) was added to all wells and the assay plate was incubated for an additional […] at 37° C., with shaking or rocking. Final DMSO concentration was 1%. A post-read of each well was then performed at 390 nm and 460 nm extinction/emission.
Molecule,"inhibition at 25 min, 2.2 µM [1] [%]","inhibition at 25 min, 2.2 µM [4] [%]",CYP2C9 % inh @ 2.2 μM [1] [%],CYP2D6 % inh @ 2.2 μM) [4] [%],Change in MAP or HR ≧ 15% ? [2],Δ Temp (° C.) [3] [°C]
"Cc1cc2c(NC(=O)N[C@@H]3CC(C)(C)Oc4cc(F)ccc43)c(F)ccc2cn1 [Example 123, N-[(4R)-7-fluoro-2,2-dimethyl-3,4-dihydro-2H-chromen-4-yl]-N′-(6-fluoro-3-methylisoquinolin-5-yl)urea]",19,42,–,–,No (an observed increase or decrease of less than or equal to 15% in MAP (mean arterial pressure) or HR (heart rate) in the test group of animals relative to the vehicle control group is indicated as “No” in the table),0.0
"Cc1cc2c(NC(=O)N[C@@H]3CC(CF)(CF)Oc4c(F)cccc43)cccc2cn1 [Example 85, N-[(4R)-8-fluoro-2,2-bis(fluoromethyl)-3,4-dihydro-2H-chromen-4-yl]-N′-(3-methylisoquinolin-5-yl)urea]",7.2,10,–,–,No (an observed increase or decrease of less than or equal to 15% in MAP (mean arterial pressure) or HR (heart rate) in the test group of animals relative to the vehicle control group is indicated as “No” in the table),0.2
"CC1(C)C[C@@H](NC(=O)Nc2cccc3cnccc23)c2ccc(F)cc2O1 [Example 23, N-[(4R)-7-fluoro-2,2-dimethyl-3,4-dihydro-2H-chromen-4-yl]-N′-isoquinolin-5-ylurea]",56,–,–,–,–,−0.7
"CCCC1(CCC)C[C@@H](NC(=O)Nc2cccc3cnc(C)cc23)c2cccc(F)c2O1 [Example 68, N-[(4R)-8-fluoro-2,2-dipropyl-3,4-dihydro-2H-chromen-4-yl]-N′-(3-methylisoquinolin-5-yl)urea]",13,0,–,–,–,0.1
"N-[(4R)-6,8-difluoro-2,2-dimethyl-3,4-dihydro-2H-chromen-4-yl]-N′-isoquinolin-5-ylurea [Example 17]",–,–,50,100,–,−1.5
"N-[(4R)-7-fluoro-2,2,8-trimethyl-3,4-dihydro-2H-chromen-4-yl]-N-(3-methylisoquinolin-5-yl)urea [Example 111]",–,–,0.36,0.87,–,−1.3
"CC1(C)C[C@@H](NC(=O)Nc2cccc3cnccc23)c2ccccc2O1 [Example 27, N-[(4R)-2,2-dimethyl-3,4-dihydro-2H-chromen-4-yl]-N′-isoquinolin-5-ylurea]",48,–,–,–,–,−1.0
"CC1(C)C[C@@H](NC(=O)Nc2cccc3cnccc23)c2ccc(C(F)(F)F)cc2O1 [Example 34, N-[(4R)-2,2-dimethyl-7-(trifluoromethyl)-3,4-dihydro-2H-chromen-4-yl]-N′-isoquinolin-5-ylurea]",39,97,–,–,–,−1.6
"CCC1(CC)C[C@@H](NC(=O)Nc2cccc3cnc(C)cc23)c2ccc(Cl)cc2O1 [Example 69, N-[(4R)-7-chloro-2,2-diethyl-3,4-dihydro-2H-chromen-4-yl]-N′-(3-methylisoquinolin-5-yl)urea]",5.3,0,–,–,–,0.1

# The next lines start with results.
"inhibition at 25 min, 2.2 µM [1] [%]","inhibition at 25 min, 2.2 µM [4] [%]",CYP2C9 % inh @ 2.2 μM [1] [%],CYP2D6 % inh @ 2.2 μM) [4] [%],Molecule,Change in MAP or HR ≧ 15% ? [2],Δ Temp (° C.) [3] [°C]
9,0.23,–,–,"Cc1cc2c(NC(=O)N[C@@H]3C[C@@](C)(CF)Oc4c(F)cccc43)cccc2cn1 [Example 128, N-[(2S,4R)-8-fluoro-2-(fluoromethyl)-2-methyl-3,4-dihydro-2H-chromen-4-yl]-N′-(3-methylisoquinolin-5-yl)urea]",–,−0.1
19,0.68,–,–,"CCC1(CC)C[C@@H](NC(=O)Nc2cccc3cnc(Cl)cc23)c2cccc(F)c2O1 [Example 81, N-(3-chloroisoquinolin-5-yl)-N′-[(4R)-2,2-diethyl-8-fluoro-3,4-dihydro-2H-chromen-4-yl]urea]",–,−0.5
13,20,–,–,"Cc1cc2c(NC(=O)N[C@@H]3CC(CF)(CF)Oc4cc(Br)ccc43)cccc2cn1 [Example 102, N-[(4R)-7-bromo-2,2-bis(fluoromethyl)-3,4-dihydro-2H-chromen-4-yl]-N′-(3-methylisoquinolin-5-yl)urea]",–,−0.7
13,19,–,–,"Cc1cc2c(NC(=O)N[C@@H]3CC(CF)(CF)Oc4c(Cl)cccc43)cccc2cn1 [Example 91, N-[(4R)-8-chloro-2,2-bis(fluoromethyl)-3,4-dihydro-2H-chromen-4-yl]-N′-(3-methylisoquinolin-5-yl)urea]",–,−0.1
25,9,–,–,"Cc1cc2c(NC(=O)N[C@@H]3CC(CF)(CF)Oc4c(OC(F)(F)F)cccc43)cccc2cn1 [Example 87, N-[(4R)-2,2-bis(fluoromethyl)-8-(trifluoromethoxy)-3,4-dihydro-2H-chromen-4-yl]-N′-(3-methylisoquinolin-5-yl)urea]",–,−2.0
5.2,16,–,–,"Cc1cc2c(NC(=O)N[C@@H]3CC(C)(C)Oc4c(OC(F)(F)F)cccc43)cccc2cn1 [Example 94, N-[(4R)-2,2-dimethyl-8-(trifluoromethoxy)-3,4-dihydro-2H-chromen-4-yl]-N′-(3-methylisoquinolin-5-yl)urea]",–,−2.0
0,0,–,–,"Cc1cc2c(NC(=O)N[C@@H]3C[C@](C)(CF)Oc4c(F)cccc43)cccc2cn1 [Example 126, N-[(2R,4R)-8-fluoro-2-(fluoromethyl)-2-methyl-3,4-dihydro-2H-chromen-4-yl]-N′-(3-methylisoquinolin-5-yl)urea]",–,0.0
